Reference: patent publication US9956232B2, “Dialkyl-phosphinoyl-alkane (Dapa) compounds and compositions for treatment of lower gastrointestinal tract disorders” (priority 2016, dated 2018)
“And” between values parts separate entries of the source, which are not always exact repeats. Equal entries are not always repeated.

Key:
[1] = tested on: heat-induced edema in the anesthetized rat paw; assay: Heat-induced edema in the anesthetized rat paw; assay type: in vivo; conditions: 20 mg/mL, 0.3 mL per paw, 30 min before 58° C. water 1 min; relative to contralateral paw
From the text: Inflammation is defined as the reaction of vascularized living tissue to local injury [Cotran, R S. 1989. Inflammation and repair. In Robbins: Pathologic Basis of Disease, ed. S. L. Robbins, R. S. Cotran, V. Kumar, 2:39-86. Philadelphia: Saunders. 4th ed.]. The characteristic signs of inflammation are redness, swelling, heat, and pain (and loss of function). The anti-inflammatory properties of the DAPA compounds were studied in a model of heat-induced vascular leakage [Wei et al. Method of inhibiting inflammatory response. U.S. Pat. No. 4,801,612; Wei et al., Anti-inflammatory peptide agonists. Annual Review Pharmacol Toxicol. 33:9-108, 1993]. When the paws of pentobarbital-anesthetized rats (200 to 300 g body weight) are immersed in 58° C. water for 1 min, the normal paw volume of about 1.8 mL was increased by ˜88% within 30 min, the swelling being due to an increase in water content of the paw.
Test compounds were dissolved in 20% water-80% R-1,2-propanediol at 20 mg/mL. The solutions were applied to the paw skin of pentobarbital-anesthetized rats (200 to 300 g body weight) at 0.3 mL per paw, using a syringe attached to a blunt 21 gauge needle covered at its tip with a piece of polyethylene 60 tubing. After distributing the solution over the paw, the paw was tightly enclosed in a plastic finger cut from a disposable glove. The contralateral paw [control] received only the vehicle. Thirty min after application, both paws were immersed in 58° C. water for 1 min. Thirty min after immersion, both paws were cut at ankle joint with scissors and weighed.
This degree of inhibition is significant for tissue protection as the injury stimulus is of supra-maximal intensity. The DAPA-2-5 effect was apparent to the untrained observer.

isolated mouse vagus = assay: Capsaicin-induced depolarization of the isolated vagus nerve; conditions: data also shown in U.S. Ser. No. 14/544,042
From the text: An isolated vagus nerve model was developed at Imperial College, London, U.K. [Birrell et al. TrpA1 agonists evoke coughing in guinea pig and human volunteers. Amer. J. respiratory and critical care medicine 180, 1042-7, 2009; Patel, H. J. et al. Inhibition of guinea-pig and human sensory nerve activity and the cough reflex in guinea-pigs by cannabinoid (CB2) receptor activation. Brit. J. Pharmacol. 140, 261-8, 2003]. In this in vitro assay, segments of the mouse vagus nerve are placed on a platform and the electrical activity is recorded after topical application of capsaicin. Capsaicin is a known irritant that elicits pain when it is applied to the skin and it will depolarize the isolated vagus. […] The similar effect of DAPA-2-5 in this test system was published in U.S. Ser. No. 14/55,042. Briefly, segments of vagus nerve, caudal to the nodose ganglion, were removed from mice with fine forceps and segments placed in oxygenated Krebs solution and bubbled with 95% O2/5% CO2. The desheathed nerve trunk was mounted in a ‘grease-gap’ recording chamber and constantly superfused with Krebs solution with a flow rate of approximately 2 mL/min, and the electrical activity of the nerve monitored with electrodes. The temperature of the perfusate was kept constant at 37° C. by a water bath. Nerve depolarizations were induced by superfusion of the nerve with capsaicin (1 μM). After two reproducible depolarization responses to capsaicin, DIPA-1-7 was applied at 1 mg/mL for 10 minutes in the perfusate followed by capsaicin.

TRPM8 = TRPM8 (Homo sapiens, UniProt Q7Z2W7); assay: TRPM8 receptor agonist assay (Fluo-8 calcium, FLIPR); assay type: cell-based; design: host or cells: CHO cells, stably transfected
TRPM8, sequence (Q7Z2W7 whole entry): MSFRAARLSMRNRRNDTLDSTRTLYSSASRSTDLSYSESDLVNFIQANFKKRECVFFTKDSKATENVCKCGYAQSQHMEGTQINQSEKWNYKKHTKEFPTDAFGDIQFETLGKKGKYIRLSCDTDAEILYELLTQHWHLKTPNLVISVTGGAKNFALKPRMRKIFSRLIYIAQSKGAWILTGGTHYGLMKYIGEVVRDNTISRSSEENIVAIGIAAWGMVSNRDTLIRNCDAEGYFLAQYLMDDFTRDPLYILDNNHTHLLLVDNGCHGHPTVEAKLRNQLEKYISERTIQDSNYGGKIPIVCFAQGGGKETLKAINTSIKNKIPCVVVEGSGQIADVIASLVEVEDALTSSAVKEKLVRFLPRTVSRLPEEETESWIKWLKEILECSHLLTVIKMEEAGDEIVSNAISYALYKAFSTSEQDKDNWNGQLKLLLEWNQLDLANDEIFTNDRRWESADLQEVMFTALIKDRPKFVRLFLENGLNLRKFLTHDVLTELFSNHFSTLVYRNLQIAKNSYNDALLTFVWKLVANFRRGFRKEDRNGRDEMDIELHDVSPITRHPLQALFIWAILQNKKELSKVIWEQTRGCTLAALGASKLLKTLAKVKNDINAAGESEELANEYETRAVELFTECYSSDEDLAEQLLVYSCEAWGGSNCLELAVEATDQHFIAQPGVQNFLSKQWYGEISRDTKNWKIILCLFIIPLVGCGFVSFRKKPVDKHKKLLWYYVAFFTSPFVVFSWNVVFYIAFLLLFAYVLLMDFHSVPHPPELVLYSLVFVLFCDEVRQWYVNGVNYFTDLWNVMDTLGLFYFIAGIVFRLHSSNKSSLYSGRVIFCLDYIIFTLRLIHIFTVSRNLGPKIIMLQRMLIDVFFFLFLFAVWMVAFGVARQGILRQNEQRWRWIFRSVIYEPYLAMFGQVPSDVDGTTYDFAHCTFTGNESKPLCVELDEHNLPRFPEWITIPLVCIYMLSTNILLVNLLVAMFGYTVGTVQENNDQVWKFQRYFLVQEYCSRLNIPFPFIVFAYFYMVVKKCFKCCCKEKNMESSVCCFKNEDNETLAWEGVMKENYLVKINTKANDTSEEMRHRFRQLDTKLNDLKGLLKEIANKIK
Method: Compounds were tested on (CHO) cells stably transfected with human TRPM8 cDNAs using a Fluo-8 calcium kit and a Fluorescence Imaging Plate Reader ([…]™) instrument. […] Solutions were prepared by diluting stock solutions in a HEPES-buffered physiological saline (HBPS) solution. Test compound and control formulations were loaded in polypropylene or glass-lined 384-well plates, and placed into the FLIPR instrument (Molecular Devices Corporation, Union City, Calif., USA). Each was tested at 8 concentrations with n=4 replicates per determination. […] For […]™ assay, cells were plated in 384-well black wall, flat clear-bottom microtiter plates (Type: BD Biocoat Poly-D-Lysine Multiwell Cell Culture Plate) at approximately 30,000 cells per well. Cells were incubated at 37° C. overnight to reach a near confluent monolayer appropriate for use in a fluorescence assay. The test procedure was to remove the growth media and to add 40 μL of HBPS containing Fluo-8 for 30 minutes at 37° C. 10 μL of test compound, vehicle, or control solutions in HBPS were added to each well and read for 4 minutes. Concentration-response data were analysed via the FLIPR Control software that is supplied with the FLIPR System (MDS-AT) and fitted to a Hill equation.

With `CCCCCP(=O)(C(C)CC)C(C)CC` (centres unmarked) [DAPA-2-5, 1-Di(sec-butyl) phosphinoyl-pentane] the “Inhibition of Heat Edema (±S.E.M.)” value [1] was 12.9% and 12.9 ± 2.5 %, the “inhibition of capsaicin-induced depolarization” value (isolated mouse vagus; TRPM8 knock-out mouse) was “did not inhibit” and the “percent inhibition of capsaicin-induced depolarization” value (isolated mouse vagus; isolated normal mouse vagus) was 60%. For the same molecule, the “×Menthol” value (TRPM8; TRPM8 relative potency as repeated in Table 4) was 2.2 and the “Relative Potency” value (TRPM8; relative to menthol = 1.0 (Table 2)) was 2.2.
